Measured values: ChEMBL document CHEMBL4513101, “Naegleria gruberi Pathogen Box compounds screening” (2021)
Calls of active or inactive are those of the source. Rule as the data show it: active = inhibition of 80% or more and inactive = less.

Tested on: Naegleria gruberi
Experiment: microbe, parasite or virus in culture
Format: functional
Conditions: NEG-M, CONC 10 uM
Description: Growth inhibiting activity of Naegleria gruberi in vitro

Cc1cccc(NC(=O)c2cc(S(=O)(=O)N(C)c3ccc(F)cc3)ccc2Cl)n1
inhibition at 10 µM: 42.3% (not active)

O=C1N(Cc2cc3ccccc3s2)CC2CN(Cc3ccccc3)CCN12 (configuration not stated)
inhibition at 10 µM: 34.3% (not active)

O=C(N[C@H](Cc1ccccc1)C(=O)Nc1ccccc1N1CCOCC1)c1cccs1
inhibition at 10 µM: 29.6% (not active)

CCOC(=O)c1noc(N)c1-c1ccccc1
inhibition at 10 µM: 0% (not active)

O=C(NCc1cc(Cl)cc(Cl)c1)c1c(C(F)(F)F)nc2ccccn12
inhibition at 10 µM: 28.4% (not active)

O=C(Nc1nnc(-c2ccc(Cl)cc2)o1)c1cccc(C(F)(F)F)c1
inhibition at 10 µM: 19.7% (not active)

C[C@H](c1ccc2c(c1)CCCC2)N(C)c1ncc2c(N)nc(N)nc2n1
inhibition at 10 µM: 29.6% (not active)

CCC(Sc1nc2ccccc2o1)C(=O)Nc1nnc(C)s1 (configuration not stated)
inhibition at 10 µM: 8.4% (not active)

CN1CCN(c2cc(-c3ccc(F)cc3)nc(-c3ccncc3)n2)CC1
inhibition at 10 µM: 30% (not active)

O=C(Nc1nc(-c2ccccn2)cs1)C1CC1c1ccccc1F (configuration not stated)
inhibition at 10 µM: 46.3% (not active)

C[C@H]1c2cccc(O)c2C(=O)C2=C(O)[C@]3(O)C(=O)C(C(N)=O)=C(O)[C@@H](N(C)C)[C@@H]3[C@@H](O)[C@@H]21 [DOXYCYCLINE]
inhibition at 10 µM: 59.8% (not active)

N=C(N)c1ccc(OCCCCCOc2ccc(C(=N)N)cc2)cc1 [PENTAMIDINE]
inhibition at 10 µM: 43% (not active)

CC(C)(C)c1ccc(N[C@@H]2CCCC[C@H]2NC(=O)c2ccco2)cc1
inhibition at 10 µM: 8.8% (not active)

CC(C)C(Oc1cccc2ccccc12)C(=O)O (configuration not stated)
inhibition at 10 µM: 1.3% (not active)

CCn1cnc2c(Nc3cc(F)cc(F)c3)nc(C#N)nc21
inhibition at 10 µM: 83.2% (active)

CN1CCC(c2cc(-c3ccncc3)c(-c3ccc(F)cc3)[nH]2)CC1
inhibition at 10 µM: 0% (not active)

N=C(N)c1ccc(-c2cc(-c3ccccc3)on2)cc1
inhibition at 10 µM: 26.5% (not active)

CCc1ccc(S(=O)(=O)Nc2cc(CN3CCN(CCC(C)C)CC3)ccc2C)cc1
inhibition at 10 µM: 48.7% (not active)

CCOc1ccccc1NC(C)C(=O)Nc1cc(C(F)(F)F)ccc1N1CCOCC1 (configuration not stated)
inhibition at 10 µM: 20.8% (not active)

Brc1cncc(-c2cc(NCCCn3ccnc3)nc(-c3ccccc3)n2)c1
inhibition at 10 µM: 33.8% (not active)

CCOC(=O)c1c(NC(=O)c2c(F)c(F)c(F)c(F)c2F)sc(C(N)=O)c1C
inhibition at 10 µM: 5.8% (not active)

C[C@@H]1[C@H](O)[C@@H](C)/C=C/C=C/C=C/C=C/C=C/C=C/C=C/[C@H](O[C@@H]2O[C@H](C)[C@@H](O)[C@H](N)[C@@H]2O)C[C@@H]2O[C@](O)(C[C@@H](O)C[C@@H](O)[C@H](O)CC[C@@H](O)C[C@@H](O)CC(=O)O[C@H]1C)C[C@H](O)[C@H]2C(=O)O [AMPHOTERICIN B]
inhibition at 10 µM: 2.4% (not active)

Nc1ccc2ncnc(Nc3ccc(OCc4cccc(F)c4)c(Cl)c3)c2c1
inhibition at 10 µM: 10.6% (not active)

Cc1cc2ccccc2n1CC(=O)N1CC(C(=O)N2CCCCC2)Oc2ccccc21 (configuration not stated)
inhibition at 10 µM: 52.5% (not active)

Nc1cccnc1Nc1ccc(Cl)cc1
inhibition at 10 µM: 4.1% (not active)

CCN(CC)S(=O)(=O)c1ccc(Cl)c(C(=O)Nc2ccc3nc(C)sc3c2)c1
inhibition at 10 µM: 84.7% (active)

Cc1ccc(-c2nc(CN(Cc3ccccn3)C(C)C)cs2)o1
inhibition at 10 µM: 26.7% (not active)

COc1ccccc1OCCCCn1c(C2CC2)nc2ccccc21
inhibition at 10 µM: 42.6% (not active)

Nc1c2c(nc3sc4c(c13)CCCC4)CCCC2
inhibition at 10 µM: 48.3% (not active)

Clc1cccc(C(c2ccc(CN3CCNCC3)cc2)n2ccnc2)c1 (configuration not stated)
inhibition at 10 µM: 20.3% (not active)

COc1ccc(-c2cnc3ccc(N4CCCC4)nn23)cc1OC
inhibition at 10 µM: 51.2% (not active)

Cc1ccc(C(=O)Nc2ccc(S(=O)(=O)O)c3cc(S(=O)(=O)O)cc(S(=O)(=O)O)c23)cc1NC(=O)c1cccc(NC(=O)Nc2cccc(C(=O)Nc3cc(C(=O)Nc4ccc(S(=O)(=O)O)c5cc(S(=O)(=O)O)cc(S(=O)(=O)O)c45)ccc3C)c2)c1 [SURAMIN]
inhibition at 10 µM: 32% (not active)

CCc1ccc(C(NCc2nc(N)nc(N(C)C)n2)C(C)C)cc1 (configuration not stated)
inhibition at 10 µM: 18.9% (not active)

NS(=O)(=O)c1cccc(-c2ccc3ncc(N4CCOCC4)nc3c2)c1
inhibition at 10 µM: 26% (not active)

CCc1ccccc1-n1c(C)cn2c3c(=O)n(C(C(=O)OC)C(C)C)c(=O)n(C)c3nc12 (configuration not stated)
inhibition at 10 µM: 4.4% (not active)

COc1ccc(N(CCc2cccc(C)n2)C(C)=O)cc1
inhibition at 10 µM: 19.6% (not active)

Cc1ccc(S(=O)(=O)N2CCN(C(=O)c3cc(-c4ccccc4)n[nH]3)CC2)cc1
inhibition at 10 µM: 22.3% (not active)

O=C(Nc1ccccc1)c1ccc(-c2cc3ccncc3cc2OC2CCNCC2)s1
inhibition at 10 µM: 12.6% (not active)

C[C@]1(COc2ccc(N3CCC(Oc4ccc(OC(F)(F)F)cc4)CC3)cc2)Cn2cc([N+](=O)[O-])nc2O1
inhibition at 10 µM: 94.1% (active)

CC(C)(C)[C@H]1CC[C@H](CC2=C(O)C(=O)c3ccccc3C2=O)CC1 [BUPARVAQUONE]
inhibition at 10 µM: 92.9% (active)

CC(=O)NCC1CN(c2ccc(-c3ccc(CO)cc3)c(F)c2)C(=O)O1 (configuration not stated)
inhibition at 10 µM: 35.1% (not active)

COc1cc(CN2CCC3(C=Cc4ccccc43)CC2)cc2c1OCO2
inhibition at 10 µM: 38.6% (not active)

CC1CCCN(C(=O)C(C)Nc2cc(Cl)ccc2N2CCOCC2)C1 (configuration not stated)
inhibition at 10 µM: 43.8% (not active)

CC(C)(C(=O)Nc1ccc(F)cc1)n1cc(-c2ccccc2F)cn1
inhibition at 10 µM: 30.2% (not active)

COc1cccc(CC(=O)N2CCC(n3c(C)nc4ccc(F)cc43)CC2)c1
inhibition at 10 µM: 19.3% (not active)

CC(C)(C)OC(=O)N1CCC(Cn2nc(-c3cnc4ccccc4c3)c3c(N)ncnc32)CC1
inhibition at 10 µM: 57.8% (not active)

CC(C)(C)n1nc(-c2ccccc2)c2c(N)ncnc21
inhibition at 10 µM: 55.1% (not active)

COc1ccc(-c2nc(-c3cccc(NC(=O)Cc4ccc(F)cc4)c3)no2)cc1OC
inhibition at 10 µM: 35.4% (not active)

Cc1cc(O)nc(-n2nc(C)cc2C)n1
inhibition at 10 µM: 3.8% (not active)

COc1cccn2c(C(=O)N3CCCCC3)c(C(F)(F)F)nc12
inhibition at 10 µM: 17% (not active)

COc1ccc(-c2nn(C(C)C)c3ncnc(N)c23)cc1OC
inhibition at 10 µM: 49.5% (not active)

c1coc(CNc2nc(N3CCCCC3)nc3ccccc23)c1
inhibition at 10 µM: 56.5% (not active)

COc1cncc(-c2cncc(N3CCN(c4ccncc4)CC3)n2)c1
inhibition at 10 µM: 26.8% (not active)

Brc1c(-c2ccc3c(c2)OCO3)nc2ncccn12
inhibition at 10 µM: 39.1% (not active)

CCCCCCCCCCCCCCCCOP(=O)([O-])OCC[N+](C)(C)C [MILTEFOSINE]
inhibition at 10 µM: 4% (not active)

CNc1nnc(Sc2cnn(-c3ccccc3)c(=O)c2Cl)s1
inhibition at 10 µM: 50% (not active)

FC(F)(F)c1cccc(-c2nc3c(NCc4ccncc4)nccc3[nH]2)c1
inhibition at 10 µM: 25.1% (not active)

c1ccc(Oc2ccc(-c3cncc(-c4ccc5[nH]ccc5c4)n3)cc2)cc1
inhibition at 10 µM: 11.4% (not active)

COc1ccc(C2=NN(C3CCCCCC3)C(=O)[C@@H]3CC=CC[C@H]23)cc1OCCCCOc1ccc(-c2nnn[nH]2)cc1
inhibition at 10 µM: 30.2% (not active)

N=C(N)Nc1ccc(-c2ccc(-c3ccc(N=C(N)N)c(Cl)c3)o2)cc1Cl
inhibition at 10 µM: 22.3% (not active)

O=C(Nc1cccc(Cl)c1)c1cnc(N2CCN(c3ccncc3)CC2)c(Cl)c1
inhibition at 10 µM: 39.6% (not active)

COc1ccc(OC)c(NCc2ccc3nc(N)nc(N)c3c2Cl)c1
inhibition at 10 µM: 33.6% (not active)

NCC(c1cccs1)S(=O)(=O)c1ccccc1 (configuration not stated)
inhibition at 10 µM: 7.1% (not active)

CC(C(=O)N1CCCC1)N1CCN(S(=O)(=O)c2ccc(C(C)(C)C)cc2)CC1 (configuration not stated)
inhibition at 10 µM: 4.7% (not active)

COc1ccc(OC(C)C(=O)Nc2ccc(Cl)cc2C)cc1 (configuration not stated)
inhibition at 10 µM: 34% (not active)

CNC(=O)C1Cc2c([nH]c3cc(Cl)ccc23)C2(CCN(CCc3ccccc3)CC2)N1 (configuration not stated)
inhibition at 10 µM: 11.5% (not active)

O=C(Nc1nnc(S)s1)c1cc(Br)ccc1Cl
inhibition at 10 µM: 11.5% (not active)

COc1ccc(-c2cncc3ccc(C(=O)NCCCn4ccnc4)nc23)cc1
inhibition at 10 µM: 5.8% (not active)

COc1cc(NC(C)CCCN)c2ncccc2c1 (configuration not stated) [PRIMAQUINE]
inhibition at 10 µM: 10.7% (not active)

CCC(NC(=O)c1ccccc1NC(=O)c1ccc(C)cc1)C(=O)OC (configuration not stated)
inhibition at 10 µM: 4.8% (not active)

CC(C)=CCC/C(C)=C\CNCCNC1C2CC3CC(C2)CC1C3 (configuration not stated)
inhibition at 10 µM: 20.2% (not active)

Nc1ncnc2[nH]nc(Cc3cccc4ccccc34)c12
inhibition at 10 µM: 24% (not active)

c1ccc(Oc2ccc(-c3cc(CN4CCOCC4)[nH]n3)cc2)cc1
inhibition at 10 µM: 3.2% (not active)

O=C(Nc1ccccc1-c1nc2c(C(=O)O)cccc2o1)c1ccccc1
inhibition at 10 µM: 39.5% (not active)

O=C(c1cc2ccccc2o1)N1CCN(Cc2ccc3c(c2)OCO3)CC1
inhibition at 10 µM: 28.6% (not active)

Cc1ccc2[nH]c3c(NCCN(C)C)ncnc3c2c1
inhibition at 10 µM: 23.7% (not active)

CC(C)C(C(=O)Nc1ccc(S(=O)(=O)N(C)C)cc1)c1ccc(Cl)cc1 (configuration not stated)
inhibition at 10 µM: 41% (not active)

CO/C=C(/C(=O)OC)c1ccccc1Oc1cc(Oc2ccccc2C#N)ncn1 [AZOXYSTROBIN]
inhibition at 10 µM: 33.7% (not active)

COc1ccc(-c2cc(NC(=O)c3ccc(F)cc3Cl)ccc2OC)cc1
inhibition at 10 µM: 38.4% (not active)

COC(=O)c1c(NC(=O)c2c(F)c(F)c(F)c(F)c2F)sc2c1CCCCC2
inhibition at 10 µM: 30.9% (not active)

CN1CCN(c2nccc3[nH]c(-c4cccc(F)c4)cc23)CC1
inhibition at 10 µM: 0% (not active)

CC(=O)NC[C@H]1CN(c2ccc(N3CCSCC3)c(F)c2)C(=O)O1 [SUTEZOLID]
inhibition at 10 µM: 45.7% (not active)

O=C(Cn1ccnc1[N+](=O)[O-])NCc1ccccc1 [BENZNIDAZOLE]
inhibition at 10 µM: 37.4% (not active)

CS(=O)(=O)c1ccccc1C(=O)N(Cc1ccccc1)c1ccccc1
inhibition at 10 µM: 31.8% (not active)

O=C(NCCc1ccn(-c2ccccc2)n1)C1CCCCC1
inhibition at 10 µM: 6.2% (not active)

CNC(=O)C1Cc2ccccc2N1C(=O)Cc1ccc(F)cc1 (configuration not stated)
inhibition at 10 µM: 38% (not active)

CCOc1ccc(-c2nc(NC(=O)CS(=O)(=O)c3ccccc3)sc2C)cc1
inhibition at 10 µM: 50.9% (not active)
